{"source": "patent US20130196996A1", "about": "“USE OF ISOXAZOLINE COMPOUNDS AND COMPOSITIONS IN BLADDER CANCER” (CPSI STOCKHOLDER TRUST, priority 2010, published 2013)", "key": {"[1]": {"tested_on": "BBN model of bladder cancer", "assay": "BBN model of bladder cancer, Experiment 1: bladder weight and pathology after oral gavage", "assay_type": "in vivo, C57Bl/6 mice", "conditions": "for average bladder weight: Experiment 1, 25 mg/kg gavage weeks 16-22, control 0.5±0.5 gm; for mean of tissue involved with invasive disease (tumor burden) / upper tract obstruction (hydro-ureteronephrosis) at euthanasia: Experiment 1, 25 mg/kg gavage; for mean of tissue involved with invasive disease (tumor burden): SD ±30% (2705), ±32% (1306), control 81%; for upper tract obstruction (hydro-ureteronephrosis) at euthanasia: majority of control animals obstructed; for mean percentage of tumors representing invasive disease (FIG. 4E) / representative bladder tumor stage on H&E pathology: Experiment 1, 25 mg/kg; for mean percentage of tumors representing invasive disease (FIG. 4E): in words; for representative bladder tumor stage on H&E pathology: vehicle group infiltrative pT3 cancer; for Pieces involved / Pieces involved, in situ % / Pieces involved, inv % (invasive) / Squamous met and normal: Table 1, individual animal bladders, 25 mg/kg gavage weeks 16-22, 25 mg/kg", "procedure": "(§1) Three-month old C57Bl/6 mice were purchased from Jackson Laboratories (Bar Harbor, Me.) and Charles River (Wilmington, Mass.). The animals were maintained at the University of Connecticut Center for Laboratory Animal Care under National Institutes of Health guidelines. All procedures were approved by an institutional animal care committee. The mice were housed in a controlled environment with a 12 hour light-12 hour dark cycle and provided food and water ad libitum.\n(§2) All animals received BBN(N-butyl-N-(4-hydroxybutyl)-nitrosamine, TCI America, Portland, Oreg.) 0.05% in water in brown bottles for 22 weeks. BBN is known to induce cancer in the bladder. Mice were treated with either the CPSI compounds or vehicle for weeks 16-22. Timing of dosing was intended to correspond with the timeframe of tumor progression from CIS to invasive disease, as determined in prior experiments.\n(§3) Thirty 3-month old male mice (n=10/group) were gavage fed either vehicle (PEG 300, methylcellulose) (control group), CPSI-2705, or CPSI-1306 at 25 mg/kg for weeks 16-22.\n(§4) Animals were inspected daily for general health with weights recorded at least biweekly and more frequently in the last several weeks based on recorded weight loss. Animals were euthanized by CO2 inhalation and cervical dislocation. Bladders were harvested, weighed, placed in PBS/formaldehyde for 24 hours and then transferred to PBS. Upper tracts (kidney and ureters) were inspected for hydronephrosis. Bladders were assessed for tumor stage and grade and amount of pathologic involvement with invasive disease. Bladders were sectioned in the mid-sagital plane, laid flat on the medial surface and step sectioned for whole mount pathologic analysis. Haematoxylin and eosin (H&E) staining was carried out to assess for histology and pathology. Bladders were step sectioned, embedded in paraffin, serially sectioned and stained with H&E and assessed for tumor stage and grade and amount of pathologic involvement with invasive disease. A single pathologist reviewed all slides in a blinded manner to provide a pathological diagnosis. As a tumor develops in the bladder, the size and weight of the bladder increases. Bladder weight is therefore a useful surrogate for bladder tumor burden, representing the relative amount of bladder tumor that develops during continual exposure to the carcinogen, BBN.\n(§5) Values shown are means±SEM. […] Statistical analysis was performed using SPSS® version 2.03 (San Rafael, Calif.). Differences were examined by one-way analysis of variance (ANOVA) followed by the post-hoc Dunnett's test."}, "[2]": {"tested_on": "BBN model of bladder cancer", "assay": "BBN model of bladder cancer, Experiment 2: escalating dose of CPSI-1306", "assay_type": "in vivo, C57Bl/6 mice", "conditions": "for mean bladder weights at euthanasia as surrogate for tumor volume, effect vs vehicle: p<0.05 Dunnett post-hoc", "procedure": "as §1, §2\nSixty 3-month old male mice (n=˜8/group) were gavage fed an escalating dose of CPSI-1306 (0.001, 0.01, 0.1, 1.0, 10 or 25 mg/kg) or vehicle (PEG 400, H2O) for weeks 16-22.\nas §4, §5"}, "[3]": {"assay": "Body weight, general health and survival of BBN mice, Experiment 1", "assay_type": "in vivo", "procedure": "as §2, §3\nAnimals were inspected daily for general health with weights recorded at least biweekly and more frequently in the last several weeks based on recorded weight loss. Animals were euthanized by CO2 inhalation and cervical dislocation. Bladders were harvested, weighed, placed in PBS/formaldehyde for 24 hours and then transferred to PBS. Upper tracts (kidney and ureters) were inspected for hydronephrosis. Bladders were assessed for tumor stage and grade and amount of pathologic involvement with invasive disease. […] Bladders were step sectioned, embedded in paraffin, serially sectioned and stained with H&E and assessed for tumor stage and grade and amount of pathologic involvement with invasive disease. […]"}, "[4]": {"conditions": "Experiment 2, dose escalation, in words"}}, "note": "Where “and” joins values, the source holds several entries; their conditions need not be identical. Equal values may be shown once."}
{"compound": "O=C(C[C@H]1CC(c2ccc(F)cc2F)=NO1)N1CCOCC1", "note": "[CPSI-1306]", "values": [{"measurement": "average bladder weight", "setting": "[1]", "value": "0.2±0.2", "unit": "gm"}, {"measurement": "mean of tissue involved with invasive disease (tumor burden)", "setting": "[1]", "value": 59, "unit": "%"}, {"measurement": "upper tract obstruction (hydro-ureteronephrosis) at euthanasia", "setting": "[1]", "value": "none seen"}, {"measurement": "mean percentage of tumors representing invasive disease (FIG. 4E)", "setting": "[1]", "value": "Smaller tumors with a smaller percentage of invasiveness"}, {"measurement": "representative bladder tumor stage on H&E pathology", "setting": "[1]", "value": "focal pT3 with areas of normal mucosa"}, {"measurement": "mean bladder weight, fold less than control group", "setting": "[1]; Experiment 1, FIG. 1, p=0.06", "value": 2.5, "unit": "fold"}, {"measurement": "Pieces involved", "setting": "[1]", "value": "4 (6×) and 2 and 7 and 6 and 3 − inv, 1 − in situ"}, {"measurement": "Pieces involved, in situ %", "setting": "[1]", "value": "5% (2×) and (15 + 15%) and 10% (2×) and 15%"}, {"measurement": "Pieces involved, inv % (invasive)", "setting": "[1]", "value": "25% and (15 + 15%) and (20%) and (90%) (2×) and (95%) and 35% and 70% and 80% and 65%"}, {"measurement": "Squamous met and normal", "setting": "[1]", "value": "70% (2×) and 80% and 10% (3×) and <5% and 55% and 25% and 20%"}, {"measurement": "mean bladder weights at euthanasia as surrogate for tumor volume, effect vs vehicle", "setting": "[2]; Experiment 2, 0.1 mg/kg gavage weeks 16-22", "value": "significant effect"}, {"measurement": "mean bladder weights at euthanasia as surrogate for tumor volume, effect vs vehicle", "setting": "[2]; Experiment 2, 1.0 mg/kg gavage weeks 16-22", "value": "significant effect"}, {"measurement": "mean percentage of tumor representing invasive disease (FIG. 5B)", "setting": "[2]; [4]", "value": "Smaller tumors with a smaller percentage of invasiveness"}, {"measurement": "percentage of bladders in each dosing group with each pathologic stage (FIG. 5A)", "setting": "[2]; [4]", "value": "A decrease in the percentage of higher stage tumors"}, {"measurement": "general health appearance during drug treatment", "setting": "[3]; Experiment 1, 25 mg/kg gavage, compared to the other two treatment arms", "value": "appeared healthier"}]}
{"compound": "CN(C(=O)C[C@H]1CC(c2ccc(Cl)cc2)=NO1)C1CCCCC1", "note": "[CPSI-2705]", "values": [{"measurement": "average bladder weight", "setting": "[1]", "value": "0.3±0.3", "unit": "gm"}, {"measurement": "mean of tissue involved with invasive disease (tumor burden)", "setting": "[1]", "value": 62, "unit": "%"}, {"measurement": "upper tract obstruction (hydro-ureteronephrosis) at euthanasia", "setting": "[1]", "value": "Fewer animals were noted to have obstruction"}, {"measurement": "mean percentage of tumors representing invasive disease (FIG. 4E)", "setting": "[1]", "value": "Smaller tumors with a smaller percentage of invasiveness"}, {"measurement": "representative bladder tumor stage on H&E pathology", "setting": "[1]", "value": "pT1 disease"}, {"measurement": "Pieces involved", "setting": "[1]", "value": "8 (3×) and 2 (2×) and 6 and 4 (2×) and 1 − inv, 3 − in situ and 10"}, {"measurement": "Pieces involved, in situ %", "setting": "[1]", "value": "10% (2×) and 5% (2×) and 20%"}, {"measurement": "Pieces involved, inv % (invasive)", "setting": "[1]", "value": "80% and 85% and (60%) and (70%) and 60% and (30%) and 10% and 30% and (95%) (2×)"}, {"measurement": "Squamous met and normal", "setting": "[1]", "value": "10% (2×) and 40% and 30% (2×) and 70% (2×) and 65% and <5% (2×)"}, {"measurement": "animals died prior to completion of the study", "setting": "[3]; Experiment 1, n=10/group, 25 mg/kg gavage, control also two", "value": "Two"}]}
